Measured values taken from US12559529B2, “NPY2 receptor agonists” (Boehringer Ingelheim International GmbH, priority 2019, dated 2026).
*1 amine or outer side, *2 acyl side, *3 side chain or, on linkers, in order; H or OH if unused. Where a SMILES comes first, the peptide text is derived from it. Side-chain parts run from the residue outwards. The star is where a group is joined. C18 diacid = O=C(O)CCCCCCCCCCCCCCCCC(=O)*; γGlu = O=C(O)[C@H](CCC(=O)[*:2])N[*:1]; Isovaleryl = CC(C)CC(=O)*; AEEA = NCCOCCOCC(=O)O

biological target: T1, Human Neuropeptide Y2 Receptor (Homo sapiens, UniProt P49146); assay: Radioligand binding competition assay (RLB); conditions: Table 3; human 125I-PYY (1-36) 0.02 nM, Y2 receptor membranes; read-out: Ki
T1 construct: purchased CHEMICON HTS066M
T1 sequence (P49146 1-381): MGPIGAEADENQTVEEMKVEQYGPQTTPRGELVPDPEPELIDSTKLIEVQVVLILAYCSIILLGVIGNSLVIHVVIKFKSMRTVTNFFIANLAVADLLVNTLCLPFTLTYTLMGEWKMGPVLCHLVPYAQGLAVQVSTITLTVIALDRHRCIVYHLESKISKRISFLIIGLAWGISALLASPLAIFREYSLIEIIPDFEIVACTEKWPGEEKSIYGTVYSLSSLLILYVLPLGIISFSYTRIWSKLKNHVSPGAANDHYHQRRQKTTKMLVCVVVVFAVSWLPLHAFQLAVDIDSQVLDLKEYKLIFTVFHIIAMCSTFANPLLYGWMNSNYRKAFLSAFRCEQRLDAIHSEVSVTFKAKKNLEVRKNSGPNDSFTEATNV
How it was run: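 Peptide dilutions made in pH 7.4 HEPES assay buffer with 0.2% ovalbumin; human Y2 receptor membranes added at 0.5 μg protein/well; plates shaken 2 h at room temperature; reaction stopped by vacuum filtration onto PEI-treated GF/C filters with ice-cold high-salt washes; radioactivity counted by scintillation.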

SMILES | Ki [nM]
CC(C)CC(=O)N[C@@H](C)C(=O)N1CCC[C@H]1C(=O)N[C@@H](CCC(=O)O)C(=O)N[C@@H](CCCCNC(=O)COCCOCCNC(=O)COCCOCCNC(=O)CC[C@H](NC(=O)CCCCCCCCCCCCCCCCC(=O)O)C(=O)O)C(=O)N1CCC[C@H]1C(=O)N[C@@H](CCC(=O)O)C(=O)N[C@@H](C)C(=O)N[C@@H](CC(=O)O)C(=O)N[C@@H](C)C(=O)N[C@@H](CCC(=O)O)C(=O)N1CCC[C@H]1C(=O)N[C@@H](CCC(=O)O)C(=O)N[C@@H](CCC(=O)O)C(=O)N[C@@H](CC(C)C)C(=O)N[C@@H](CCC(N)=O)C(=O)N[C@@H](CCCNC(=N)N)C(=O)N[C@@H](Cc1ccc(O)cc1)C(=O)N[C@@H](Cc1ccc(O)cc1)C(=O)N[C@H](C(=O)N[C@@H](CO)C(=O)N[C@@H](CC(C)C)C(=O)N[C@@H](CCCNC(=N)N)C(=O)N[C@@H](Cc1c[nH]cn1)C(=O)N[C@@H](Cc1ccc(O)cc1)C(=O)N[C@@H](Cc1ccc(O)cc1)C(=O)N[C@@H](CC(N)=O)C(=O)N[C@@H](Cc1c[nH]c2ccccc12)C(=O)N[C@@H](CC(C)C)C(=O)N[C@H](C(=O)N[C@@H](CCCNC(=N)N)C(=O)N[C@@H](CCC(N)=O)C(=O)N[C@@H](CCCNC(=N)N)C(=O)N[C@@H](Cc1ccc(O)cc1)C(N)=O)[C@@H](C)O)[C@@H](C)O [Compound 160, N{alpha-4}-(3-methylbutanoyl)-N{epsilon-7}-[2-(2-{2-[2-(2-{2-[(4S)-4-carboxy-4-(17-carboxyheptadecanamido)butanamido]ethoxy}ethoxy)acetamido]ethoxy}ethoxy)acetamido]-[4A,7K,9E,10A,13E,18Q,22T,28Y,30W,31L]hPYY (4-36)] (Isovaleryl-APEK([AEEA-AEEA-γGlu-C18 diacid])PEADAEPEELQRYYTSLRHYYNWLTRQRY-NH2) | 2
CC(C)CC(=O)N[C@@H](C)C(=O)N1CCC[C@H]1C(=O)N[C@@H](CCC(=O)O)C(=O)N[C@@H](CCCCNC(=O)COCCOCCNC(=O)COCCOCCNC(=O)CC[C@H](NC(=O)CCCCCCCCCCCCCCCCC(=O)O)C(=O)O)C(=O)N1CCC[C@H]1C(=O)N[C@@H](CCC(=O)O)C(=O)N[C@@H](CCC(=O)O)C(=O)N[C@@H](CC(=O)O)C(=O)N[C@@H](C)C(=O)N[C@@H](CO)C(=O)N1CCC[C@H]1C(=O)N[C@@H](CCC(=O)O)C(=O)N[C@@H](CCC(=O)O)C(=O)N[C@@H](CC(C)C)C(=O)N[C@@H](CCC(N)=O)C(=O)N[C@@H](CCCNC(=N)N)C(=O)N[C@@H](Cc1ccc(O)cc1)C(=O)N[C@@H](CCC(N)=O)C(=O)N[C@H](C(=O)N[C@@H](CO)C(=O)N[C@@H](CC(C)C)C(=O)N[C@@H](CCCNC(=N)N)C(=O)N[C@@H](Cc1c[nH]cn1)C(=O)N[C@@H](Cc1ccc(O)cc1)C(=O)N[C@@H](Cc1ccc(O)cc1)C(=O)N[C@@H](CC(N)=O)C(=O)N[C@@H](Cc1c[nH]c2ccccc12)C(=O)N[C@@H](CC(C)C)C(=O)N[C@H](C(=O)N[C@@H](CCCNC(=N)N)C(=O)N[C@@H](CCC(N)=O)C(=O)N[C@@H](CCCNC(=N)N)C(=O)N[C@@H](Cc1ccc(O)cc1)C(N)=O)[C@@H](C)O)C(C)C [Compound 165, N{alpha-4}-(3-methylbutanoyl)-N{epsilon-7}-[2-(2-{2-[2-(2-{2-[(4S)-4-carboxy-4-(17-carboxyheptadecanamido)butanamido]ethoxy}ethoxy)acetamido]ethoxy}ethoxy)acetamido]-[4A,7K,9E,18Q,21Q,22V,28Y,30W,31L]hPYY (4-36)] | 2.49
CC(C)CC(=O)N[C@@H](C)C(=O)N1CCC[C@H]1C(=O)N[C@@H](CCC(=O)O)C(=O)N[C@@H](CCCCNC(=O)COCCOCCNC(=O)COCCOCCNC(=O)CC[C@H](NC(=O)CCCCCCCCCCCCCCCCC(=O)O)C(=O)O)C(=O)N1CCC[C@H]1C(=O)N1CCC[C@H]1C(=O)N[C@@H](C)C(=O)N[C@@H](CC(=O)O)C(=O)N[C@@H](C)C(=O)N[C@@H](CO)C(=O)N1CCC[C@H]1C(=O)N[C@@H](CCC(=O)O)C(=O)N[C@@H](CCC(=O)O)C(=O)N[C@@H](CC(C)C)C(=O)N[C@@H](CCC(N)=O)C(=O)N[C@@H](CCCNC(=N)N)C(=O)N[C@@H](Cc1ccc(O)cc1)C(=O)N[C@@H](Cc1ccc(O)cc1)C(=O)N[C@H](C(=O)N[C@@H](CCC(=O)O)C(=O)N[C@@H](CC(C)C)C(=O)N[C@@H](CCCNC(=N)N)C(=O)N[C@@H](Cc1c[nH]cn1)C(=O)N[C@@H](Cc1ccc(O)cc1)C(=O)N[C@@H](Cc1ccc(O)cc1)C(=O)N[C@@H](CC(N)=O)C(=O)N[C@@H](Cc1c[nH]c2ccccc12)C(=O)N[C@@H](CC(C)C)C(=O)N[C@H](C(=O)N[C@@H](CCCNC(=N)N)C(=O)N[C@@H](CCC(N)=O)C(=O)N[C@@H](CCCNC(=N)N)C(=O)N[C@@H](Cc1ccc(O)cc1)C(N)=O)[C@@H](C)O)C(C)C [Compound 166, N{alpha-4}-(3-methylbutanoyl)-N{epsilon-7}-[2-(2-{2-[2-(2-{2-[(4S)-4-carboxy-4-(17-carboxyheptadecanamido)butanamido]ethoxy}ethoxy)acetamido]ethoxy}ethoxy)acetamido]-[4A,7K,9P,10A,18Q,22V,23E,28Y,30W,31L]hPYY (4-36)] | 0.66
CC(C)CC(=O)N[C@@H](C)C(=O)N1CCC[C@H]1C(=O)N[C@@H](CCC(=O)O)C(=O)N[C@@H](CCCCNC(=O)COCCOCCNC(=O)COCCOCCNC(=O)CC[C@H](NC(=O)CCCCCCCCCCCCCCCCC(=O)O)C(=O)O)C(=O)N1CCC[C@H]1C(=O)N[C@@H](CCC(=O)O)C(=O)N[C@@H](CCC(=O)O)C(=O)N[C@@H](CCC(=O)O)C(=O)N[C@@H](C)C(=O)N[C@@H](CO)C(=O)N1CCC[C@H]1C(=O)N[C@@H](CCC(=O)O)C(=O)N[C@@H](CCC(=O)O)C(=O)N[C@@H](CC(C)C)C(=O)N[C@@H](CCC(N)=O)C(=O)N[C@@H](CCCNC(=N)N)C(=O)N[C@@H](Cc1ccc(O)cc1)C(=O)N[C@@H](Cc1ccc(O)cc1)C(=O)N[C@H](C(=O)N[C@@H](C)C(=O)N[C@@H](CC(C)C)C(=O)N[C@@H](CCCNC(=N)N)C(=O)N[C@@H](Cc1c[nH]cn1)C(=O)N[C@@H](Cc1ccc(O)cc1)C(=O)N[C@@H](Cc1ccc(O)cc1)C(=O)N[C@@H](CC(N)=O)C(=O)N[C@@H](Cc1c[nH]c2ccccc12)C(=O)N[C@@H](CC(C)C)C(=O)N[C@H](C(=O)N[C@@H](CCCNC(=N)N)C(=O)N[C@@H](CCC(N)=O)C(=O)N[C@@H](CCCNC(=N)N)C(=O)N[C@@H](Cc1ccc(O)cc1)C(N)=O)[C@@H](C)O)C(C)C [Compound 169, N{alpha-4}-(3-methylbutanoyl)-N{epsilon-7}-[2-(2-{2-[2-(2-{2-[(4S)-4-carboxy-4-(17-carboxyheptadecanamido)butanamido]ethoxy}ethoxy)acetamido]ethoxy}ethoxy)acetamido]-[4A,7K,9E,11E,18Q,22V,23A,28Y,30W,31L]hPYY (4-36)] | 2.34
